Results: patent US9808469B2, “Antitumor activity of multi-kinase inhibitors in triple negative breast cancer” (ENTRECHEM, S.L, priority 2014, dated 2017)

Key:
Format in all cases: cell-based
[1] = test system: BT-549 cells; experiment: MTT metabolization, inhibition of BT-549 cell proliferation
Experimental: (§1) These triple negative breast cancer cell lines were obtained from the American Type Culture Collection Cell Biology Collection (ATCC) (Manassas, Va.). The medium was changed every 2 days.
(§2) Cell proliferation and growth experiments were carried out using 3-(4,5-dimethylthiazol-2-yl)-2,5-diphenyltetrazolium bromide (MTT) uptake assays, where MTT is reduced to purple formazan by the mitochondria of living cells. Increase in cell number is detected by augmented MTT metabolization, and decrease in cell number is reflected by a decrease. […] The cells were treated with the drug at different concentrations to plot the dose-response curves in all cancer cell lines using in the study. […] After treatment, each well was replaced with 250 μL of fresh medium containing MTT ([…]) and incubated for 1 hour. The medium was then removed and 500 μL of dimethyl sulfoxide was added to each well. The plate was agitated in the dark for 5 minutes to dissolve the MTT-formazan crystals. The absorbance of the samples was recorded at 562 nm in a multi-well plate reader (BMG labtech). Results were plotted as the mean values of quadruplicates from a representative experiment that was repeated at least two independent times.
(§3) Combination index values less than 1 indicate synergism, values equal to 1 indicate an additive effect, whereas values greater than 1 indicate antagonism. Combination index values from three independent experiments were generated.

[2] = test system: HS578T cells; experiment: MTT metabolization, inhibition of HS578T cell proliferation
Experimental: as §1, §2, §3

[3] = test system: MDA-MB-231 cells; experiment: MTT metabolization, inhibition of MDA-MB-231 cell proliferation
Experimental: as §1, §2, §3

CC(=O)O[C@@]12CO[C@@H]1C[C@H](O)[C@@]1(C)C(=O)[C@H](O)C3=C(C)[C@@H](OC(=O)[C@H](O)[C@@H](NC(=O)OC(C)(C)C)c4ccccc4)C[C@@](O)([C@@H](OC(=O)c4ccccc4)[C@H]21)C3(C)C [Docetaxel, docetaxel, reference compound]
inhibition at 0.0004 µM ([1]; Homo sapiens, BT-549, Docetaxel 0.4 nM alone, read-out: Percentage inhibition Docetaxel mean): 82% | inhibition at 0.0008 µM ([1]; Homo sapiens, BT-549, Docetaxel 0.8 nM alone, read-out: Percentage inhibition Docetaxel mean): 36.1% | inhibition at 0.0012 µM ([1]; Homo sapiens, BT-549, Docetaxel 1.2 nM alone, read-out: Percentage inhibition Docetaxel mean): 36.5% | inhibition at 0.0016 µM ([1]; Homo sapiens, BT-549, Docetaxel 1.6 nM alone, read-out: Percentage inhibition Docetaxel mean): 36.1% | percent inhibition of cell proliferation at 0.0004 µM ([2]; Homo sapiens, Hs-578T, Docetaxel 0.4 nM alone, read-out: Percentage inhibition Docetaxel mean): 73% | percent inhibition of cell proliferation at 0.0008 µM ([2]; Homo sapiens, Hs-578T, Docetaxel 0.8 nM alone, read-out: Percentage inhibition Docetaxel mean): 49.6% | percent inhibition of cell proliferation at 0.0012 µM ([2]; Homo sapiens, Hs-578T, Docetaxel 1.2 nM alone, read-out: Percentage inhibition Docetaxel mean): 45.8% | percent inhibition of cell proliferation at 0.0016 µM ([2]; Homo sapiens, Hs-578T, Docetaxel 1.6 nM alone, read-out: Percentage inhibition Docetaxel mean): 47.9% | viability at 0.0004 µM ([3]; Homo sapiens, MDA-MB-231, Docetaxel 0.4 nM alone, read-out: Percentage inhibition Docetaxel mean): 59.3% | viability at 0.0008 µM ([3]; Homo sapiens, MDA-MB-231, Docetaxel 0.8 nM alone, read-out: Percentage inhibition Docetaxel mean): 33.8% | viability at 0.0012 µM ([3]; Homo sapiens, MDA-MB-231, Docetaxel 1.2 nM alone, read-out: Percentage inhibition Docetaxel mean): 25.3% | viability at 0.0016 µM ([3]; Homo sapiens, MDA-MB-231, Docetaxel 1.6 nM alone, read-out: Percentage inhibition Docetaxel mean): 25.3%

N.N.O=C([O-])C1(C(=O)[O-])CCC1.[Pt+2] [Carboplatin, carboplatin, reference compound]
Percentage inhibition Carboplatin mean ([1]; Carboplatin 80 nM alone): 37.09% | Percentage inhibition Carboplatin mean ([1]; Carboplatin 120 nM alone): 21.43% | Percentage inhibition Carboplatin mean ([1]; Carboplatin 160 nM alone): 19.39% | Percentage inhibition Carboplatin mean ([1]; Carboplatin 200 nM alone): 15.69% | Percentage inhibition Carboplatin mean ([2]; Carboplatin 80 nM alone): 70.90% | Percentage inhibition Carboplatin mean ([2]; Carboplatin 120 nM alone): 60.26% | Percentage inhibition Carboplatin mean ([2]; Carboplatin 160 nM alone): 50.49% | Percentage inhibition Carboplatin mean ([2]; Carboplatin 200 nM alone): 24.33% | Percentage inhibition Carboplatin mean ([3]; Carboplatin 80 nM alone): 74.70% | Percentage inhibition Carboplatin mean ([3]; Carboplatin 120 nM alone): 62.30% | Percentage inhibition Carboplatin mean ([3]; Carboplatin 160 nM alone): 61.11% | Percentage inhibition Carboplatin mean ([3]; Carboplatin 200 nM alone): 58.21%
